Assay [1] concerns NS/PCs expressing yCD-UPRT (TSCs (2), GAPDH gene region, CRISPR/Cas9). In words: Cell death induction by 5-FC added to the medium. Format: cell-based, human. Conditions: 1 μg/ml 5-FC added to the medium. As for the experimental part: Differentiation induction from iPS cells in which yCD-UPRT was incorporated into the GAPDH gene region to NS/PCs was performed to obtain secondary to quinary NS/PCs (TSCs (2)). Culture was performed with 2 μg/ml blasticidin S always added to the medium. It was confirmed that the cell death of the NS/PCs expressing yCD-UPRT was induced by adding 1 μg/ml 5-FC to the medium.

In assay [2] the test system is Tet-induced NS/PCs expressing yCD-UPRT. In words: Cell death induction by Dox and 5-FC added to the medium. It is filed as cell-based, human. Conditions: 1 μg/ml Dox and 1 μg/ml 5-FC added to the medium. How it is done: Differentiation induction from the Tet-induced iPS cells expressing yCD-UPRT to NS/PCs was performed to obtain secondary and tertiary Tet-induced NS/PCs expressing yCD-UPRT.

Assay [3] relates to human glioma cells (U87). Nature of the assay: Suicide gene cell therapy with TSCs (1) expressing yCD-UPRT, mixture transplantation model. Format: in vivo. Conditions: control group 2: TSC (−)/5FC (+) 5 mg/day, only U87 transplanted.
Assay [4] has as its system NS/PCs expressing yCD-UPRT (TSCs (1), lentiviral vector). Nature of the assay: Cell death induction by 5-FC added to the medium. Format: cell-based, human. Conditions: 1 μg/ml 5-FC added to the medium. From the text: Secondary to quaternary NS/PCs differentiation-induced from the human iPS cells were collected by a centrifuge, disassembled into single cells using TrypLE Select, suspended in NS medium, inoculated into a low adhesive flask at a concentration of 1×10^5 cells/ml, infected with a CSIV-EF-yCD-UPRT-IRES2-hKO1 lentiviral vector at an MOI (multiplicity of infection) of 1 to 2 and cultured for 7 days with the medium replaced every 3 to 4 days. The obtained NS/PCs were infected with the CSIV-EF-yCD-UPRT-IRES2-hKO1 lentiviral vector at an MOI of 1 to 2 in the same way again to prepare therapeutic stem cells (TSCs (1)), that is, NS/PCs expressing yCD-UPRT. It was confirmed that the cell death of the NS/PCs expressing yCD-UPRT was induced by adding 1 μg/ml 5-FC (fluorocytosine) to the medium.

Assay [5] has as its system human glioma cells (U87). Nature of the assay: Suicide gene cell therapy with TSCs expressing yCD-UPRT with CRISPR/Cas9, transplantation model after tumor formation. Format: in vivo, mouse. Conditions: control group 2: TSC (−)/5FC (+), only U87 transplanted. As for the experimental part:
First, 1×10^4 cells/2 μl U87-ffLuc was transplanted to the right striate body (2 mm away from the anterior fontanel to the right and 3 mm deep from the brain surface) of each T cell-deficient mouse (female BALB/c nude mouse, 20 g, 6 w) subjected to general anesthesia, and 1×10^6 cells/2 μl TSCs expressing yCD-UPRT (yCD-UPRT is introduced into iPS cells with CRISPR/Cas9) were stereotactically transplanted to the same site 5 days later. The take of tumor cells was confirmed 2 days later with an IVIS, that is, an in vivo imaging system, and further 2 days later, 500 μl of 5-FC (10 mg/ml) was intraperitoneally administered to a treated group once per day for 2 weeks (TSC (+)/5-FC (+), n=8). Then, 500 μl of 1 M PBS was administered to a control group 1 for 2 weeks in the same way (control group 1: TSC/5-FC (−), n=7). A group to which only U87-ffLuc was transplanted was also generated as another control group, and 500 μl of 5-FC (10 mg/ml) was intraperitoneally administered to this once per day for 2 weeks (control group 2: TSC (−)/5-FC (+), n=3).
A method for evaluating tumors, the analysis of survival curves and the like were all performed in the same way as the above. […]
(§1) The survival analysis was performed while the luminescence imaging analysis (IVIS) of tumors was performed chronologically. […]

For assay [6], the system named is human glioma cells (U87). In words: Suicide gene cell therapy with Tet-induced TSCs (3) expressing yCD-UPRT, mixture transplantation model. It is filed as in vivo, mouse. Conditions: control group 2: TSC (−)/5-FC (+)/Dox (+), only U87-ffLuc transplanted. As for the experimental part:
First, 1×10^5 cells/2 μl U87-ffLuc and 5×10^5 cells/2 μl TSCs (3) (Tet-induced yCD-UPRT was introduced into iPS cells with the lentiviral vector) were mixed and stereotactically transplanted to the right striate body (2 mm away from the anterior fontanel to the right and 3 mm deep from the brain surface) of each T cell-deficient mouse (female BALB/c nude mouse, 20 g, 6 w) subjected to general anesthesia. Then, 500 μl of 5-FC (10 mg/ml) was intraperitoneally administered once per day for 2 weeks from the next day (treated group 1: TSC (+)/5-FC (+)/Dox (+), n=7). Next, 500 μl of 1 M PBS was administered to a control group 1 for 2 weeks in the same way (control group 1: TSC (+)/[…], n=9). A group to which only U87-ffLuc was transplanted was also generated as another control group, and 500 μl of 5-FC (10 mg/ml) was intraperitoneally administered to this once per day for 2 weeks (control group 2: TSC (−)/5-FC (+)/Dox (+), n=4). Feed containing 200 mg/kg of Dox was orally ingested. A method for evaluating tumors, the analysis of survival curves and the like were all performed in the same way as the above. […]
Survival analysis was performed, while the luminescence imaging analysis (IVIS) of the tumors was performed chronologically. […]

The test system of assay [7] is Tet-induced iPS cells expressing yCD-UPRT. Nature of the assay: Cell death induction by Dox and 5-FC added to the medium. Format: cell-based, human. Conditions: 1 μg/ml doxycycline (Dox) and 1 μg/ml 5-FC added to the medium. As for the experimental part: Human iPS cells were infected with the CSIV-yCD-UPRT-TRE-EF-KT lentiviral vector at an MOI of around 15 and cultured, the clones were then sorted with a cell sorter to obtain an iPS cell line expressing hKO1 steadily and highly. It was confirmed that the cell death of the Tet-induced iPS cells expressing yCD-UPRT was induced by adding 1 μg/ml doxycycline (Dox) and 1 μg/ml 5-FC to the medium.

Assay [8] deals with human glioma cells (U87). Nature of the assay: Suicide gene cell therapy with TSCs (1) expressing yCD-UPRT, transplantation model after tumor formation. Conditions: control group 2: TSC (−)/5FC (+) 5 mg/day, only U87 transplanted. It is filed as in vivo. As for the experimental part:
First, 1×10^4 cells/2 μl U87-ffLuc was transplanted to the right striate body (2 mm away from the anterior fontanel to the right and 3 mm deep from the brain surface) of each T cell-deficient mouse (female BALB/c nude mouse, 20 g, 6 w) subjected to general anesthesia, and 1×10^6 cells/2 μl TSCs expressing yCD-UPRT (yCD-UPRT is introduced into NS/PCs with the lentiviral vector) were stereotactically transplanted to the same site 5 days later. The take of tumor cells was confirmed 2 days later with an IVIS, that is, an in vivo imaging system, and 500 μl of 5-FC (10 mg/ml) was then intraperitoneally administered to a treated group once per day for 2 weeks (TSC (+)/5-FC (+) 5 mg/day, n=9). Next, 500 μl of 1 M PBS was administered to a control group 1 for 2 weeks in the same way (control group 1: TSC (+)/5-FC (−), n=9). A group to which only U87-ffLuc was transplanted was also generated as another control group, and 500 μl of 5-FC (10 mg/ml) was intraperitoneally administered to this once per day for 2 weeks (control group 2: TSC (−)/5-FC (+) 5 mg/day, n=3). […]
as §1

Regarding `Nc1nc(=O)[nH]cc1F` [5-FC, 5-fluorocytosine], the cell death result in assay [1], in assay [2], in assay [4] and in assay [7] was “induced” each time. Moreover, the average survival period in assay [3] came to 21 days; in assay [5] it was 21 days; in assay [6] it was 19 days; in assay [8], 21 days.

The values above are taken from US12090172B2, “Suicide gene therapeutic agent for brain tumors using pluripotent stem cell” (KEIO UNIVERSITY, priority 2017, dated 2024).
